Results on three molecules are retold here after patent EP2210604A1, “PHARMACEUTICAL COMPOSITIONS COMBINING A NONSTEROIDAL ANTI-INFLAMMATORY AGENT AND A XANTHINE OXIDASE INHIBITING AGENT, WHICH CAN BE USED TO CONTROL AND TREAT GOUT, GOUTY ARTHRITIS AND RELATED DISEASES” (Espinosa Abdala, Leopoldo de Jesús, priority 2007, dated 2009).

Molecules are shown by their SMILES.

Data set [1] concerns patients with Gouty arthritis. In words: Clinical study (Phase I): combination of Allopurinol/Meloxicam vs independent delivery, 52 weeks follow-up. To be noted: for Uric Acid Average, baseline / Uric Acid Average, at the end of study: Allopurinol 300 mg per day, Meloxicam 15 mg per day, or combination 300 mg/15 mg, n=50 per group; for Uric Acid Average, at the end of study: end of study (52 weeks). The format is in vivo. Here is the method: A clinical study was carried out assessing the efficacy of a combination of Allopurinol/Meloxicam vs independent delivery of Allopurinol and Meloxicam in patients with Gouty arthritis.
There were 150 patients with gout and with uric acid levels at least of 8 mg/dL randomly selected for this study.
Main validation criterion was uric acid concentration of 6 mg/dL, in the last 3 monthly determinations. Secondary validation criteria included a reduction of incidence in gout worsening events.

The subject of data set [2] is arthritic pain model in rat. In words: PIFIR model: uric acid-induced arthritic pain model in rat, antinociceptive activity. To be noted: oral; for DE50: dose causing 50% of maximum possible effect, drug alone. As for the experimental part:
An arthritic pain model in rat was determined for said purpose. Data were interpreted by a Surface Synergistic Interaction analysis (ISS) and an isobolographic analysis to determine the interaction nature. ISS was calculated from the total antinociceptive effect produced by the combination after subtracting the antinociceptive effect produced by drug separately.
For this study Wistar female rats were used [Crl (WI) BR] weighing between 180 to 200 gr. […] Number of animals in experiment was kept minimal and animals were kept in a room with climate and light control with a 12-hour light/dark cycle.
At the completion of study rats were sacrificed.
Animals were anesthesized with ether in a chamber (Pyrex glass dryer with ether vapor). Nociception was induced through a 0.05 mL uric acid intraarticular (ia) injection suspended in mineral oil in knee joint from right back leg. The suspension was prepared by milling 3.0 g. of uric acid with 10 mL of mineral oil in a glass mortar with pestle (Pyrex). Intraarticular injection was carried out through patellar ligament using a 1 mL glass syringe (Beckton Dickinson LTA, Brazil) with a 5 mm 24-gauge needle. An electrode was implanted immediately after to the plantar surface of each back claw between plantar pads. […] Contact time between each electrode from rat limb and cylinder was registered. […] This time was determined as zero time for measuring antinociceptive effects; these effects were measured every 30 minutes during the following 4 hours. This allowed determining the time course for antinociceptive effects in the same animal. Antinociception was considered as a recovery of contact time. Data are expressed as Functionality percentage index (IF%, that is, contact time on injected leg by the contact time in left leg, control, multiplied by 100). For the purpose of this study, nociception induction in experimental animals was unavoidable. However, care was taken to prevent an unnecessary suffering. All experiments were performed between 7:00 am and 2:00 pm.
Study data, tables and figures are expressed as IF%. Curves for IF% vs time were prepared for each treatment and the corresponding course time was obtained. Antinociception was estimated as a recovery of IF%. Accumulated antinociceptive effect during the whole observation period (4 hours) was determined as the area below the curve (ABC) from time course to obtain a dose-response curve and for analyzing the total antinociceptive effect obtained by analgesic agent whether alone or in combination.
ABC was calculated for each drug combination and for each of the components. […] If the […] ABC was higher than the theoretical sum, the result was considered enhancement; when it was similar to the theoretical sum then was determined to show additive antinociceptive effects. […] All values for each treatment are average ± S. E. M., for six animals. ABC values for drug combinations were compared with expected values using the Student test.
Doses which caused 50% of maximum possible effect (DE50) of each drug were calculated by performing a linear regression analysis of the linear portion from dose-response curves. The isobologram was prepared by using the DE50 when drugs were delivered alone or in combination. […] DE50 value from combination total dose was calculated from the dose-response curve of combined drugs. Statistical significance between additive theoretical point and DE50 experimental value was validated by using the Student test.

The conditions of data set [3]: cited from earlier work.
The subject of the next data set is plasma proteins. Conditions: cited from earlier work.

The term bioavailability denotes the share of a dose that reaches the circulation, judged against a reference dose that is usually intravenous. With `Cc1cnc(NC(=O)C2=C(O)c3ccccc3S(=O)(=O)N2C)s1` [Meloxicam], the “Uric Acid Average, baseline” value in data set [1] came out at 10 mg/dL. Moreover, the “Uric Acid Average, at the end of study” value in data set [1] was determined as 9 mg/dL. The ABC was 65.0 ± 9.6 au in data set [2] (Meloxicam 0.32 mg/kg alone, 4 hours); 98.7 ± 15.5 au in data set [2] (Meloxicam 0.56 mg/kg alone, 4 hours); 279.0 ± 15.5 au in data set [2] (Meloxicam 1.78 mg/kg alone, 4 hours). Besides, in data set [2] (Meloxicam 2.16 mg/kg (so in the source), 4 hours), the “antinociceptive efficacy (ABC)” value is recorded as 295.8 ± 14.9 au. Besides, the “antinociceptive effect (ABC)” value in data set [2] (Meloxicam 3.16 mg/kg (maximum used dosage), 4 hours) was determined as 295.8 ± 14.9 au. For the same molecule, the DE50 in data set [2] is 0.86 ± 0.10 mg/kg. In addition, the bioavailability in data set [3] (oral) is listed as 89%. Besides, the “adherence with plasma proteins” value in the data set with plasma proteins is reported as over 99%.

With `Oc1ncnc2[nH]ncc12` [Allopurinol], in data set [1] (along 9 to 52 weeks, comparison between groups), the “global incidence of acute events” value is “similar”. Besides, in data set [1], the “Uric Acid Average, baseline” value amounted to 9 mg/dL and the “Uric Acid Average, at the end of study” value turned out to be 7 mg/dL. The “adverse events reported (gastrointestinal upset)” value in data set [1] (number of events per group of 50 patients, 52 weeks) is reported as “Six”. Moreover, the ABC in data set [2] (Allopurinol 10.0 mg/kg alone, 4 hours) came out at 22.5 ± 9.3 au. For the same molecule, the ABC in data set [2] (Allopurinol 17.78 mg/kg alone, 4 hours) turned out to be 58.2 ± 23.7 au. Moreover, the “antinociceptive efficacy (ABC)” value in data set [2] (Allopurinol 56.23 mg/kg, 4 hours) was 207.7 ± 24.7 au. In addition, the “side effects in animals” value in data set [2] (Allopurinol at 100 mg/kg) is reported as “did not cause side effects”. The “walking capability of treated rats” value in data set [2] (Meloxicam 0.18-5.62 mg/kg, Allopurinol 3.16-56.23 mg/kg) is listed as “did not affect the walking capability”. In data set [2], the DE50 came out at 44.29 ± 0.06 mg/kg. Besides, the “ingested drug excreted in stools” value in data set [3] (in vivo) is “About 20%”.

As to `Cc1ccc(-c2cc(C(F)(F)F)nn2-c2ccc(S(N)(=O)=O)cc2)cc1` [Celecoxib], the “time to maximum plasma levels” value in data set [3] (after oral dose) is “about 3 hours”. In data set [3] (as metabolites), the “dose recovered in feces” value is given as 57% and the “dose recovered in urine” value is reported as 27%. In data set [3] (clearance half-life), the half-life result is on record as “about 11 hours”. Further, in data set [3] (in vivo), the Plasmatic clearance result was “about 500 mL/min” and the distribution volume entry is “about 400 L”.
